Among the data in patent US20210395262A1, “INHIBITORS OF HUMAN IMMUNODEFICIENCY VIRUS REPLICATION” (ViiV HEALTHCARE UK (NO.5) LIMITED, priority 2018, published 2021) are CC50 and EC50 values, retold here.

The nature of series [1]: Compound cytotoxicity, XTT-based colorimetric assay. The format is cell-based. The settings on record: human; uninfected MT2 cells, day 4, XTT; read-out: CC50. The method, then: Compound cytotoxicity and the corresponding CC50 values were determined using the same protocol as described in the antiviral assay except that uninfected cells were used. Cytotoxicity was assessed on day 4 in uninfected MT2 cells by using a XTT (2,3-bis[2-Methoxy-4-nitro-5-sulfophenyl]-2H-tetrazolium-5-carboxyanilide inner salt)-based colorimetric assay (Sigma-Aldrich, St Louis, Mo.).
In general terms: Tetrazolium dyes change colour on reduction, which living cells bring about.

The next series concerns recombinant NL4-3 virus. Nature of the series: HIV cell culture assay (antiviral activity, luciferase readout in MT-2 cells). The format is cell-based. As to conditions: Human immunodeficiency virus 1, NL43, MT2. The method, then:
HIV cell culture assay—MT-2 cells, 293T cells and the proviral DNA clone of NL4-3 virus were obtained from the […] AIDS Research and Reference Reagent Program. MT-2 cells were propagated in RPMI 1640 media supplemented with 10% heat inactivated fetal bovine serum (FBS), […] penicillin G and up to 100 units/mL streptomycin. The 293T cells were propagated in DMEM media supplemented with 10% heat inactivated FBS, […] penicillin G and […] streptomycin. A recombinant NL4-3 proviral clone, in which a section of the nef gene was replaced with the Renilla luciferase gene, was used to make the reference virus used in these studies. The recombinant virus was prepared through transfection of the recombinant NL4-3 proviral clone into 293T cells using Transit-293 Transfection Reagent from Mirus Bio LLC (Madison, Wis.). Supernatent was harvested after 2-3 days and the amount of virus present was titered in MT-2 cells using luciferase enzyme activity as a marker by measuring luciferase enzyme activity. Luciferase was quantitated using the EnduRen Live Cell Substrate from Promega (Madison, Wis.). Antiviral activities of compounds toward the recombinant virus were quantified by measuring luciferase activity in MT-2 cells infected for 4-5 days with the recombinant virus in the presence of serial dilutions of the compound.
The 50% effective concentration (EC50) was calculated by using the exponential form of the median effect equation where (Fa)=1/[1+(ED50/drug conc.)m] (Johnson V A, Byington R T. Infectivity Assay. In Techniques in HIV Research. ed. Aldovini A, Walker B D. 71-76. New York: Stockton Press. 1990). The 50% inhibitory concentration (EC50) was calculated by using the exponential form of the median effect equation where percent inhibition=1/[1+(EC50/drug concentration)m], where m is a parameter that reflects the slope of the concentration-response curve.

For orientation: CC50 means the concentration at which the toxic effect on the cells reaches its halfway point. As usually defined, the EC50 is the midpoint of the concentration-response curve. Turning to `Cn1nc(NS(C)(=O)=O)c2c(Cl)ccc(-n3c([C@H](Cc4cc(F)cc(F)c4)NC(=O)Cn4nc(C(F)F)c5c4C(F)(F)[C@@H]4C[C@H]54)nc4cc(N5CCC6(CC5)COC6)ccc4c3=O)c21` (atropisomer, axis not shown; (P)) [Example 25, N—((S)-1-((3P)-3-(4-chloro-1-methyl-3-(methylsulfonamido)-1H-indazol-7-yl)-4-oxo-7-(2-oxa-7-azaspiro[3.5]nonan-7-yl)-3,4-dihydroquinazolin-2-yl)-2-(3,5-difluorophenyl)ethyl)-2-((3bS,4aR)-3-(difluoromethyl)-5,5-difluoro-3b,4,4a,5-tetrahydro-1H-cyclopropa[3,4]cyclopenta[1,2-c]pyrazol-1-yl)acetamide], the CC50 at 4 days in series [1] was > 500 nM. Moreover, the EC50 with recombinant NL4-3 virus was determined as 0.095 nM.

As to `Cn1nc(NS(C)(=O)=O)c2c(Cl)ccc(-n3c([C@H](Cc4cc(F)cc(F)c4)NC(=O)Cn4nc(C(F)F)c5c4C(F)(F)[C@@H]4C[C@H]54)nc4cc(N5CC(S(C)(=O)=O)C5)ccc4c3=O)c21` (atropisomer, axis not shown; (P)) [Example 26, N—((S)-1-((3P)-3-(4-chloro-1-methyl-3-(methylsulfonamido)-1H-indazol-7-yl)-7-(3-(methylsulfonyl)azetidin-1-yl)-4-oxo-3,4-dihydroquinazolin-2-yl)-2-(3,5-difluorophenyl)ethyl)-2-((3bS,4aR)-3-(difluoromethyl)-5,5-difluoro-3b,4,4a,5-tetrahydro-1H-cyclopropa[3,4]cyclopenta[1,2-c]pyrazol-1-yl)acetamide], in series [1], the CC50 at 4 days is > 500 nM. Moreover, the EC50 with recombinant NL4-3 virus is 0.295 nM.

On to `COC1CCN(c2ccc3c(=O)n(-c4ccc(Cl)c5c(NS(C)(=O)=O)nn(C)c45)c([C@H](Cc4cc(F)cc(F)c4)NC(=O)Cn4nc(C(F)F)c5c4C(F)(F)[C@@H]4C[C@H]54)nc3c2)CC1` (atropisomer, axis not shown; (P)) [Example 28, N—((S)-1-((3P)-3-(4-chloro-1-methyl-3-(methylsulfonamido)-1H-indazol-7-yl)-7-(4-methoxypiperidin-1-yl)-4-oxo-3,4-dihydroquinazolin-2-yl)-2-(3,5-difluorophenyl)ethyl)-2-((3bS,4aR)-3-(difluoromethyl)-5,5-difluoro-3b,4,4a,5-tetrahydro-1H-cyclopropa[3,4]cyclopenta[1,2-c]pyrazol-1-yl)acetamide], for which the CC50 at 4 days in series [1] is > 500 nM. For the same compound, in the series with recombinant NL4-3 virus, the EC50 was determined as 0.12 nM.

On to `Cn1nc(NS(C)(=O)=O)c2c(Cl)ccc(-n3c([C@H](Cc4cc(F)cc(F)c4)NC(=O)Cn4nc(C(F)F)c5c4C(F)(F)[C@@H]4C[C@H]54)nc4cc(N5CCC(S(C)(=O)=O)CC5)ccc4c3=O)c21` (atropisomer, axis not shown; (P)) [Example 30, N—((S)-1-((3P)-3-(4-chloro-1-methyl-3-(methylsulfonamido)-1H-indazol-7-yl)-7-(4-(methylsulfonyl)piperidin-1-yl)-4-oxo-3,4-dihydroquinazolin-2-yl)-2-(3,5-difluorophenyl)ethyl)-2-((3bS,4aR)-3-(difluoromethyl)-5,5-difluoro-3b,4,4a,5-tetrahydro-1H-cyclopropa[3,4]cyclopenta[1,2-c]pyrazol-1-yl)acetamide], for which the CC50 at 4 days in series [1] was > 500 nM. In the series with recombinant NL4-3 virus, the concentration for a half-maximal effect (EC50) turned out to be 0.381 nM.

In the case of `Cn1nc(NS(C)(=O)=O)c2c(Cl)ccc(-n3c([C@H](Cc4cc(F)cc(F)c4)NC(=O)Cn4nc(C(F)F)c5c4C(F)(F)[C@@H]4C[C@H]54)nc4cc(N5CC=CC5)ccc4c3=O)c21` (atropisomer, axis not shown; (P)) [Example 31, N—((S)-1-((3P)-3-(4-chloro-1-methyl-3-(methylsulfonamido)-1H-indazol-7-yl)-7-(2,5-dihydro-1H-pyrrol-1-yl)-4-oxo-3,4-dihydroquinazolin-2-yl)-2-(3,5-difluorophenyl)ethyl)-2-((3bS,4aR)-3-(difluoromethyl)-5,5-difluoro-3b,4,4a,5-tetrahydro-1H-cyclopropa[3,4]cyclopenta[1,2-c]pyrazol-1-yl)acetamide], the CC50 at 4 days in series [1] was > 500 nM. Also, the EC50 in the series on recombinant NL4-3 virus worked out at 0.127 nM.

Take `Cn1nc(NS(C)(=O)=O)c2c(Cl)ccc(-n3c([C@H](Cc4cc(F)cc(F)c4)NC(=O)Cn4nc(C(F)F)c5c4C(F)(F)[C@@H]4C[C@H]54)nc4cc(N5CCC6(CCC6)CC5)ccc4c3=O)c21` (atropisomer, axis not shown; (P)) [Example 34, N—((S)-1-((3P)-3-(4-chloro-1-methyl-3-(methylsulfonamido)-1H-indazol-7-yl)-4-oxo-7-(7-azaspiro[3.5]nonan-7-yl)-3,4-dihydroquinazolin-2-yl)-2-(3,5-difluorophenyl)ethyl)-2-((3bS,4aR)-3-(difluoromethyl)-5,5-difluoro-3b,4,4a,5-tetrahydro-1H-cyclopropa[3,4]cyclopenta[1,2-c]pyrazol-1-yl)acetamide]: the CC50 at 4 days in series [1] was > 1000 nM. For the same compound, in the series on recombinant NL4-3 virus, the EC50 was found to be 2.81 nM.

For the compound `Cn1nc(NS(C)(=O)=O)c2c(Cl)ccc(-n3c([C@H](Cc4cc(F)cc(F)c4)NC(=O)Cn4nc(C(F)F)c5c4C(F)(F)[C@@H]4C[C@H]54)nc4cc(N5CCC[C@H]5CO)ccc4c3=O)c21` (atropisomer, axis not shown; (P)) [Example 35, N—((S)-1-((3P)-3-(4-chloro-1-methyl-3-(methylsulfonamido)-1H-indazol-7-yl)-7-((S)-2-(hydroxymethyl)pyrrolidin-1-yl)-4-oxo-3,4-dihydroquinazolin-2-yl)-2-(3,5-difluorophenyl)ethyl)-2-((3bS,4aR)-3-(difluoromethyl)-5,5-difluoro-3b,4,4a,5-tetrahydro-1H-cyclopropa[3,4]cyclopenta[1,2-c]pyrazol-1-yl)acetamide], the CC50 at 4 days in series [1] is > 10000 nM. Also, the EC50 in the series on recombinant NL4-3 virus was 0.272 nM.

Turning to `O=C(Cn1nc(C(F)F)cc1C(F)F)N[C@@H](Cc1cc(F)cc(F)c1)c1nc2cc(N3CCOCC3)ccc2c(=O)n1-c1ccc(Cl)c2c(NS(=O)(=O)C3CC3)nn(CC(F)F)c12` (atropisomer, axis not shown; (P)) [Example 36, (S)-2-(3,5-bis(difluoromethyl)-1H-pyrazol-1-yl)-N-(1-((3P)-3-(4-chloro-3-(cyclopropanesulfonamido)-1-(2,2-difluoroethyl)-1H-indazol-7-yl)-7-morpholino-4-oxo-3,4-dihydroquinazolin-2-yl)-2-(3,5-difluorophenyl)ethyl)acetamide], the CC50 at 4 days in series [1] is > 1000 nM. Also, in the series on recombinant NL4-3 virus, the EC50 came to 2.31 nM.

In the case of `O=C(Cn1nc(C(F)F)cc1C(F)F)N[C@@H](Cc1cc(F)cc(F)c1)c1nc2cc(N3CCCCC3)ccc2c(=O)n1-c1ccc(Cl)c2c(NS(=O)(=O)C3CC3)nn(CC(F)F)c12` (atropisomer, axis not shown; (P)) [Example 37, (S)-2-(3,5-bis(difluoromethyl)-1H-pyrazol-1-yl)-N-(1-((3P)-3-(4-chloro-3-(cyclopropanesulfonamido)-1-(2,2-difluoroethyl)-1H-indazol-7-yl)-4-oxo-7-(piperidin-1-yl)-3,4-dihydroquinazolin-2-yl)-2-(3,5-difluorophenyl)ethyl)acetamide], the CC50 at 4 days in series [1] is > 1000 nM. Also, the EC50 with recombinant NL4-3 virus was 2.34 nM.
